Experimental data taken from patent publication US9279003B2, “Analogs of sodium channel peptide toxin” (priority 2010, dated 2016).
Where a SMILES comes first, the peptide text is derived from it. Bridges are numbered along the chain shown (N, C = ends). [ ]: non-standard residue; d: D form. NMeL = CN[C@@H](CC(C)C)C(=O)O; αMeL = CC(C)C[C@](C)(N)C(=O)O

Key:
Nav1.2 (rBIIa) = format: cell-based, rat
human Nav1.7 = human Nav1.7 (Homo sapiens, UniProt Q15858); assay: cell-based; format: cell-based
Chain of human Nav1.7 (Q15858 other isoform, or with tags, fused parts or gaps): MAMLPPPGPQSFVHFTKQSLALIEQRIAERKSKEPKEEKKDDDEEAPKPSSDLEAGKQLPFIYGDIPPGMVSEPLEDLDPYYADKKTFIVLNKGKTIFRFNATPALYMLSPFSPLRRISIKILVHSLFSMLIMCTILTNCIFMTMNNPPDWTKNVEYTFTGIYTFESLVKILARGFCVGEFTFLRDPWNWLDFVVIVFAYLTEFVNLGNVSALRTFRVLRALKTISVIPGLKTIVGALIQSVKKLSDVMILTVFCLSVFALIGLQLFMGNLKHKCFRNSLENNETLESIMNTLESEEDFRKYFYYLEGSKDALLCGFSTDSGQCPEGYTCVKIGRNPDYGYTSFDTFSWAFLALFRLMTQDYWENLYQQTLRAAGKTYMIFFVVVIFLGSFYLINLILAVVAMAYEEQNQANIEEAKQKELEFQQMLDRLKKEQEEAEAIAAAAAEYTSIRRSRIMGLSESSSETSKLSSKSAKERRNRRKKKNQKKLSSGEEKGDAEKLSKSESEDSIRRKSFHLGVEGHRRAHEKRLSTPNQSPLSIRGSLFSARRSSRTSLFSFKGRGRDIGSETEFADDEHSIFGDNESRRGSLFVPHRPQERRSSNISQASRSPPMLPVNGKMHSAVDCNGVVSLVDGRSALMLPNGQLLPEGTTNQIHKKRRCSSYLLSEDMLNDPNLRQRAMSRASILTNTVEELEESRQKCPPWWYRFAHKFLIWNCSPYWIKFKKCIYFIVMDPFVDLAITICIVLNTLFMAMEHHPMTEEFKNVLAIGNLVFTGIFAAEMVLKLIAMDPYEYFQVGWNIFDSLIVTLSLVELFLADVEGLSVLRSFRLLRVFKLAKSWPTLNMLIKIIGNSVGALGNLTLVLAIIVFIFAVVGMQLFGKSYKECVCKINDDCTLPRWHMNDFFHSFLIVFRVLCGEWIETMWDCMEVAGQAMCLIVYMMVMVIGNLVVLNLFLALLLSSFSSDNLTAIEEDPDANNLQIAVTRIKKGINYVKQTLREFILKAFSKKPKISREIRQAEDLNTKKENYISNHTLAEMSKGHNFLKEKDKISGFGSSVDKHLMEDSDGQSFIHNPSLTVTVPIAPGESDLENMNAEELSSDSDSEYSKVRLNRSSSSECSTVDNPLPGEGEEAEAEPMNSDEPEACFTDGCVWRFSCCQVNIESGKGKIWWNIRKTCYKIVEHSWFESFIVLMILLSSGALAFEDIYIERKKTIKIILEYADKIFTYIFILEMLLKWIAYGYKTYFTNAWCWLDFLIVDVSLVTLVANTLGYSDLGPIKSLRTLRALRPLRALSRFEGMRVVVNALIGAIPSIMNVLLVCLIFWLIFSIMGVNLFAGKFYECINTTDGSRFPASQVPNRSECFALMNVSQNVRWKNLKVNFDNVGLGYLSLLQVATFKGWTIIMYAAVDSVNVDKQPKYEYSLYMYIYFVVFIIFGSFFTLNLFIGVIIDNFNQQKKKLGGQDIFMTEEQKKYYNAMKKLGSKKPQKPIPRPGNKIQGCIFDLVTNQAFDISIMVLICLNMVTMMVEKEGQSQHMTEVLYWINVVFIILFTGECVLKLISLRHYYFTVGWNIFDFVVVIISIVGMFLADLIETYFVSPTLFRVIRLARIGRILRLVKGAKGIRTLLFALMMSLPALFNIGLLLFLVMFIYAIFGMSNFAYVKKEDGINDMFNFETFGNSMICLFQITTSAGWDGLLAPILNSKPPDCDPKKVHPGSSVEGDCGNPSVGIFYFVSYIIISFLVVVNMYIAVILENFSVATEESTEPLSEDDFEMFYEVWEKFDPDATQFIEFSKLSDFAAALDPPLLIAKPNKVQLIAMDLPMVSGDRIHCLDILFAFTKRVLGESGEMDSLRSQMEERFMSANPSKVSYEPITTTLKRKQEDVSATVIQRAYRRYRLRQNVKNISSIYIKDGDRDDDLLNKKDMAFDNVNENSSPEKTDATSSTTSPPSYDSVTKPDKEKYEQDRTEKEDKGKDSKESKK

Structure (SMILES)	IC50 (Nav1.2 (rBIIa)) [nM]	IC50 (human Nav1.7) [nM]
CC[C@H](C)[C@H](NC(=O)[C@@H](NC(=O)[C@H](CCCCN)NC(=O)[C@H](CCCCN)NC(=O)[C@@H]1CSSC[C@@H]2NC(=O)[C@H](CCCCN)NC(=O)[C@H](CCCNC(=N)N)NC(=O)[C@H](CCC(=O)O)NC(=O)[C@H](CO)NC(=O)[C@H](CC(=O)O)NC(=O)[C@@H]3CSSC[C@H](NC(=O)[C@H](C(C)C)NC(=O)[C@H](CCSC)NC(=O)CNC(=O)[C@H](CCC(=O)O)NC(=O)[C@H](CSSC[C@H](NC(=O)[C@@H](N)Cc4ccc(O)cc4)C(=O)N[C@@H](CCC(N)=O)C(=O)N[C@@H](CCCCN)C(=O)N[C@@H](Cc4c[nH]c5ccccc45)C(=O)N[C@@H](CCSC)C(=O)N[C@@H](Cc4c[nH]c5ccccc45)C(=O)N[C@@H]([C@@H](C)O)C(=O)N3)NC2=O)C(=O)N[C@@H](CCCNC(=N)N)C(=O)N[C@@H](CC(C)C)C(=O)N[C@@H](Cc2c[nH]c3ccccc23)C(=O)N1)[C@@H](C)CC)C(=O)O [compound 5]	919 ± 130	552 ± 90
CC[C@H](C)[C@H](NC(=O)[C@H](CCCCN)NC(=O)[C@H](CCCCN)NC(=O)[C@H](CCCCN)NC(=O)[C@@H]1CSSC[C@@H]2NC(=O)[C@H](CCCCN)NC(=O)[C@H](CCCNC(=N)N)NC(=O)[C@H](C)NC(=O)[C@H](CO)NC(=O)[C@H](CC(=O)O)NC(=O)[C@@H]3CSSC[C@H](NC(=O)[C@H](C(C)C)NC(=O)[C@H](CC(C)C)NC(=O)CNC(=O)[C@H](CCC(=O)O)NC(=O)[C@H](CSSC[C@H](NC(=O)[C@@H](N)Cc4ccc(O)cc4)C(=O)N[C@@H](CCC(N)=O)C(=O)N[C@@H](CCCCN)C(=O)N[C@@H](Cc4c[nH]c5ccccc45)C(=O)N[C@@H](CCSC)C(=O)N[C@@H](Cc4c[nH]c5ccccc45)C(=O)N[C@@H]([C@@H](C)O)C(=O)N3)NC2=O)C(=O)N[C@@H](CCCNC(=N)N)C(=O)N[C@@H](CC(C)C)C(=O)N[C@@H](Cc2c[nH]c3ccccc23)C(=O)N1)C(=O)N[C@@H](CC(C)C)C(=O)N[C@@H](Cc1c[nH]c2ccccc12)C(=O)O [compound 9] (H-YCQKWMWTCDSARKCCEGLVCRLWCKKKILW-OH; disulfide 2-16, 9-21, 15-25)	33	1
CSCC[C@@H]1NC(=O)[C@H](Cc2c[nH]c3ccccc23)NC(=O)[C@H](CCCCN)NC(=O)[C@H](CCC(N)=O)NC(=O)[C@@H](NC(=O)[C@@H](N)Cc2ccc(O)cc2)CSSC[C@@H]2NC(=O)[C@@H]3CSSC[C@@H](C(=O)N[C@@H](CCCCN)C(=O)N[C@@H](CCCCN)C(=O)N[C@@H](CCCCN)C(=O)N[C@@H](CC(C)C)C(=O)N[C@@H](Cc4c[nH]c5ccccc45)C(=O)O)NC(=O)[C@H](Cc4c[nH]c5ccccc45)NC(=O)[C@H](CC(C)C)NC(=O)[C@H](CCCNC(=N)N)NC(=O)[C@H](CSSC[C@H](NC(=O)[C@H]([C@@H](C)O)NC(=O)[C@H](Cc4c[nH]c5ccccc45)NC1=O)C(=O)N[C@@H](CC(=O)O)C(=O)N[C@@H](CO)C(=O)N[C@@H](CCC(=O)O)C(=O)N[C@@H](CCCNC(=N)N)C(=O)N[C@@H](CCCCN)C(=O)N3)NC(=O)[C@H](C(C)C)NC(=O)[C@H](CC(C)C)NC(=O)CNC(=O)[C@H](CCC(=O)O)NC2=O [compound 4]	44.7 ± 15	1.7 ± 0.1
CC[C@H](C)[C@H](NC(=O)[C@H](CCCCN)NC(=O)[C@H](CCCCN)NC(=O)[C@@H]1CSSC[C@@H]2NC(=O)[C@H](CCCCN)NC(=O)[C@H](CCCNC(=N)N)NC(=O)[C@H](C)NC(=O)[C@H](CO)NC(=O)[C@H](CC(=O)O)NC(=O)[C@@H]3CSSC[C@H](NC(=O)[C@H](C(C)C)NC(=O)[C@H](CC(C)C)NC(=O)CNC(=O)[C@H](CCC(=O)O)NC(=O)[C@H](CSSC[C@H](NC(=O)[C@@H](N)Cc4ccc(O)cc4)C(=O)N[C@@H](CCC(N)=O)C(=O)N[C@@H](CCCCN)C(=O)N[C@@H](Cc4c[nH]c5ccccc45)C(=O)N[C@@H](CCSC)C(=O)N[C@@H](Cc4c[nH]c5ccccc45)C(=O)N[C@@H]([C@@H](C)O)C(=O)N3)NC2=O)C(=O)N[C@@H](CCCNC(=N)N)C(=O)N[C@@H](CC(C)C)C(=O)N[C@@H](Cc2c[nH]c3ccccc23)C(=O)N1)C(=O)N[C@@H](CC(C)C)C(=O)N[C@@H](Cc1c[nH]c2ccccc12)C(=O)O [compound 13] (H-YCQKWMWTCDSARKCCEGLVCRLWCKKILW-OH; disulfide 2-16, 9-21, 15-25)	50 ± 10	3
CC[C@H](C)[C@H](NC(=O)[C@H](CCCCN)NC(=O)[C@H](CCCCN)NC(=O)[C@@H]1CSSC[C@@H]2NC(=O)[C@H](CCCCN)NC(=O)[C@H](CCCNC(=N)N)NC(=O)[C@H](C)NC(=O)[C@H](CO)NC(=O)[C@H](CC(=O)O)NC(=O)[C@@H]3CSSC[C@H](NC(=O)[C@H](C(C)C)NC(=O)[C@H](CC(C)C)NC(=O)CNC(=O)[C@H](CCC(=O)O)NC(=O)[C@H](CSSC[C@H](NC(=O)[C@@H](N)Cc4ccc(O)cc4)C(=O)N[C@@H](CCC(N)=O)C(=O)N[C@@H](CCCCN)C(=O)N[C@@H](Cc4c[nH]c5ccccc45)C(=O)N[C@@H](CCSC)C(=O)N[C@@H](Cc4c[nH]c5ccccc45)C(=O)N[C@@H]([C@@H](C)O)C(=O)N3)NC2=O)C(=O)N[C@@H](CCCNC(=N)N)C(=O)N[C@@H](CC(C)C)C(=O)N[C@@H](Cc2c[nH]c3ccccc23)C(=O)N1)C(=O)N[C@H](C(=O)N[C@@H](Cc1c[nH]c2ccccc12)C(=O)O)[C@@H](C)CC [compound 14] (H-YCQKWMWTCDSARKCCEGLVCRLWCKKIIW-OH; disulfide 2-16, 9-21, 15-25)	45	5 ± 1
CSCC[C@@H]1NC(=O)[C@H](Cc2c[nH]c3ccccc23)NC(=O)[C@H](CCCCN)NC(=O)[C@H](CCC(N)=O)NC(=O)[C@@H](NC(=O)[C@@H](N)Cc2ccc(O)cc2)CSSC[C@@H]2NC(=O)[C@@H]3CSSC[C@@H](C(=O)N[C@@H](CCCCN)C(=O)N[C@@H](CCCCN)C(=O)N[C@@H](CCCCN)C(=O)N[C@@H](CC(C)C)C(=O)N[C@@H](Cc4c[nH]c5ccccc45)C(=O)O)NC(=O)[C@H](Cc4c[nH]c5ccccc45)NC(=O)[C@H](CC(C)C)NC(=O)[C@H](CCCNC(=N)N)NC(=O)[C@H](CSSC[C@H](NC(=O)[C@H]([C@@H](C)O)NC(=O)[C@H](Cc4c[nH]c5ccccc45)NC1=O)C(=O)N[C@@H](CC(=O)O)C(=O)N[C@@H](CO)C(=O)N[C@@H](C)C(=O)N[C@@H](CCCNC(=N)N)C(=O)N[C@@H](CCCCN)C(=O)N3)NC(=O)[C@H](C(C)C)NC(=O)[C@H](CC(C)C)NC(=O)CNC(=O)[C@H](CCC(=O)O)NC2=O [compound 6] (H-YCQKWMWTCDSARKCCEGLVCRLWCKKKLW-OH; disulfide 2-16, 9-21, 15-25)	24 ± 10	1
CC[C@H](C)[C@H](NC(=O)[C@H](CCCNC(=N)N)NC(=O)[C@H](CCCCN)NC(=O)[C@@H]1CSSC[C@@H]2NC(=O)[C@H](CCCCN)NC(=O)[C@H](CCCNC(=N)N)NC(=O)[C@H](CCC(=O)O)NC(=O)[C@H](CCC(=O)O)NC(=O)[C@H](CC(=O)O)NC(=O)[C@@H]3CSSC[C@H](NC(=O)[C@H](C(C)C)NC(=O)[C@H](CC(C)C)NC(=O)CNC(=O)[C@H](CCC(=O)O)NC(=O)[C@H](CSSC[C@H](NC(=O)[C@@H](N)Cc4ccc(O)cc4)C(=O)N[C@@H](CCC(N)=O)C(=O)N[C@@H](CCCCN)C(=O)N[C@@H](Cc4c[nH]c5ccccc45)C(=O)N[C@@H](CCSC)C(=O)N[C@@H](Cc4c[nH]c5ccccc45)C(=O)N[C@@H]([C@@H](C)O)C(=O)N3)NC2=O)C(=O)N[C@@H](CCCNC(=N)N)C(=O)N[C@@H](CC(C)C)C(=O)N[C@@H](Cc2c[nH]c3ccccc23)C(=O)N1)C(=O)N[C@H](C(=O)N[C@@H](CC(N)=O)C(=O)N[C@@H](CCSC)C(=O)O)[C@@H](C)CC [GsMTx II/PaTX II, reference compound] (H-YCQKWMWTCDEERKCCEGLVCRLWCKRIINM-OH; disulfide 2-16, 9-21, 15-25)	–	260
CSCC[C@@H]1NC(=O)[C@H](Cc2c[nH]c3ccccc23)NC(=O)[C@H](CCCCN)NC(=O)[C@H](CCC(N)=O)NC(=O)[C@@H](NC(=O)[C@@H](N)Cc2ccc(O)cc2)CSSC[C@@H]2NC(=O)[C@@H]3CSSC[C@@H](C(=O)N[C@@H](CCCCN)C(=O)N[C@@H](CCCCN)C(=O)N[C@@H](CCCCN)C(=O)N[C@@](C)(CC(C)C)C(=O)N[C@@H](Cc4c[nH]c5ccccc45)C(=O)O)NC(=O)[C@H](Cc4c[nH]c5ccccc45)NC(=O)[C@H](CC(C)C)NC(=O)[C@H](CCCNC(=N)N)NC(=O)[C@H](CSSC[C@H](NC(=O)[C@H]([C@@H](C)O)NC(=O)[C@H](Cc4c[nH]c5ccccc45)NC1=O)C(=O)N[C@@H](CC(=O)O)C(=O)N[C@@H](CO)C(=O)N[C@@H](C)C(=O)N[C@@H](CCCNC(=N)N)C(=O)N[C@@H](CCCCN)C(=O)N3)NC(=O)[C@H](C(C)C)NC(=O)[C@H](CC(C)C)NC(=O)CNC(=O)[C@H](CCC(=O)O)NC2=O [compound 7] (H-YCQKWMWTCDSARKCCEGLVCRLWCKKK[αMeL]W-OH; disulfide 2-16, 9-21, 15-25)	28 ± 6	8 ± 1
CSCC[C@@H]1NC(=O)[C@H](Cc2c[nH]c3ccccc23)NC(=O)[C@H](CCCCN)NC(=O)[C@H](CCC(N)=O)NC(=O)[C@@H](NC(=O)[C@@H](N)Cc2ccc(O)cc2)CSSC[C@@H]2NC(=O)[C@@H]3CSSC[C@@H](C(=O)N[C@@H](CCCCN)C(=O)N[C@@H](CCCCN)C(=O)N[C@@H](CCCCN)C(=O)N(C)[C@@H](CC(C)C)C(=O)N[C@@H](Cc4c[nH]c5ccccc45)C(=O)O)NC(=O)[C@H](Cc4c[nH]c5ccccc45)NC(=O)[C@H](CC(C)C)NC(=O)[C@H](CCCNC(=N)N)NC(=O)[C@H](CSSC[C@H](NC(=O)[C@H]([C@@H](C)O)NC(=O)[C@H](Cc4c[nH]c5ccccc45)NC1=O)C(=O)N[C@@H](CC(=O)O)C(=O)N[C@@H](CO)C(=O)N[C@@H](C)C(=O)N[C@@H](CCCNC(=N)N)C(=O)N[C@@H](CCCCN)C(=O)N3)NC(=O)[C@H](C(C)C)NC(=O)[C@H](CC(C)C)NC(=O)CNC(=O)[C@H](CCC(=O)O)NC2=O [compound 8] (H-YCQKWMWTCDSARKCCEGLVCRLWCKKK[NMeL]W-OH; disulfide 2-16, 9-21, 15-25)	51 ± 10	18
